Our source for the IC50 values is patent US10206907B2, “Compounds useful for the treatment of degenerative and inflammatory diseases” (GALAPAGOS NV, priority 2008, dated 2019).

Recombinant human JAK1 catalytic domain, sequence (P23458 850-1154): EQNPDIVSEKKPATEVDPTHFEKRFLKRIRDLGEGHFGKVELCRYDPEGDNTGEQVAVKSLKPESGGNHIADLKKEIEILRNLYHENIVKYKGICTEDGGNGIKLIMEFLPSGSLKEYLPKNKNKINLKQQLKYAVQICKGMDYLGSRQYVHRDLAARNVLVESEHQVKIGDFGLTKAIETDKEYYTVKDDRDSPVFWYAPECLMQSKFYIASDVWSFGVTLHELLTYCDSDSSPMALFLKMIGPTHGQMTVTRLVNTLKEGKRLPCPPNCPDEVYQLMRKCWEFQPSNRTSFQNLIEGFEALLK

For this experiment, the target named is Recombinant human JAK1 catalytic domain (Homo sapiens (Human), UniProt P23458). Description: JAK1 inhibition assay. Particulars: semi-quantitative score. Type of experiment: biochemical. The protocol:
Plates were washed 6 times with 300 μL per well of a 75 mM phosphoric acid solution and the bottom of the plates was sealed. 40 μL/well of Microscint-20 was added, the top of the plates was sealed and readout was performed using the Topcount (Perkin Elmer). Kinase activity was calculated by subtracting counts per minute (cpm) obtained in the presence of a positive control inhibitor (10 μM staurosporine) from cpm obtained in the presence of vehicle. The ability of a test compound to inhibit this activity was determined as: Percentage inhibition=((cpm determined for sample with test compound present−cpm determined for sample with positive control inhibitor) divided by (cpm determined in the presence of vehicle−cpm determined for sample with positive control inhibitor))*100%.
Dose dilution series were prepared for the compounds enabling the testing of dose-response effects in the JAK1 assay and the calculation of the IC50 for each compound.
In the case of `O=C(Nc1nc2cccc(-c3ccc(CN4CCN(c5ccccn5)CC4)cc3)n2n1)C1CC1` [Compound 142, N-(5-(4-((4-(pyridin-2-yl)piperazin-1-yl)methyl)phenyl)-[1,2,4]triazolo[1,5-a]pyridin-2-yl)cyclopropanecarboxamide], the IC50 (usually the concentration that gives 50% inhibition) was in the range of 101 to 500 nM.
`O=C(Nc1nc2cccc(-c3ccc(CN4CCN(c5ncccn5)CC4)cc3)n2n1)C1CC1` [Compound 143, N-(5-(4-((4-(pyrimidin-2-yl)piperazin-1-yl)methyl)phenyl)-[1,2,4]triazolo[1,5-a]pyridin-2-yl)cyclopropanecarboxamide]: the IC50 lay in the range of 101 to 500 nM.
`O=C(Nc1nc2cccc(-c3ccc(C(=O)N4CCC(CCc5ccccc5)CC4)cc3)n2n1)C1CC1` [Compound 147]: the IC50 was 101 to 500 nM.
Take `O=C(Nc1nc2cccc(-c3ccc(C(=O)N4CCC(c5noc6cc(F)ccc56)CC4)cc3)n2n1)C1CC1` [Compound 149, N-(5-(4-(4-(6-fluorobenzo[d]isoxazol-3-yl)piperidine-1-carbonyl)phenyl)-[1,2,4]triazolo[1,5-a]pyridin-2-yl)cyclopropanecarboxamide]: the IC50 is 101 to 500 nM.
With `COCC(C)N(Cc1ccc(F)cc1)C(=O)c1ccc(-c2cccc3nc(NC(=O)C4CC4)nn23)cc1` (stereo not drawn) [Compound 151, 4-(2-(cyclopropanecarboxamido)-[1,2,4]triazolo[1,5-a]pyridin-5-yl)-N-(4-fluorobenzyl)-N-(1-methoxypropan-2-yl)benzamide] the figure was 101 to 500 nM.
In the case of `O=C(Nc1nc2cccc(-c3ccc(C(=O)N4CCC(n5nnc6ccccc65)CC4)cc3)n2n1)C1CC1` [Compound 152, N-(5-(4-(4-(1H-benzo[d][1,2,3]triazol-1-yl)piperidine-1-carbonyl)phenyl)-[1,2,4]triazolo[1,5-a]pyridin-2-yl)cyclopropanecarboxamide], the IC50 lay in the range of 101 to 500 nM.
Take `O=C(Nc1nc2cccc(-c3ccc(C(=O)N(Cc4ccc(F)cc4)CC4CCCO4)cc3)n2n1)C1CC1` (stereo not drawn) [Compound 153, 4-(2-(cyclopropanecarboxamido)-[1,2,4]triazolo[1,5-a]pyridin-5-yl)-N-(4-fluorobenzyl)-N-((tetrahydrofuran-2-yl)methyl)benzamide]: the IC50 fell in the range of 101 to 500 nM.
The result for `Cc1nccn1CCC1CCN(C(=N)c2ccc(-c3cccc4nc(NC(=O)C5CC5)nn34)cc2)CC1` [Compound 154, N-(5-(4-(imino(4-(2-(2-methyl-1H-imidazol-1-yl)ethyl)piperidin-1-yl)methyl)phenyl)-[1,2,4]triazolo[1,5-a]pyridin-2-yI)cyclopropanecarboxamide] reads 101 to 500 nM.
As for `CN(CCc1ccccn1)Cc1ccc(-c2cccc3nc(NC(=O)C4CC4)nn23)cc1` [Compound 155, N-(5-(4-((methyl(2-(pyridin-2-yl)ethyl)amino)methyl)phenyl)-[1,2,4]triazolo[1,5-a]pyridin-2-yl)cyclopropanecarboxamide], the IC50 is greater than 1000 nM.
`O=C(Nc1nc2cccc(-c3ccc(OCc4nnn[nH]4)cc3)n2n1)C1CC1` [Compound 158]: the IC50 is 101 to 500 nM.
With `CN(Cc1ccc(-c2ccccn2)cc1)Cc1ccc(-c2cccc3nc(NC(=O)C4CC4)nn23)cc1` [Compound 159, N-(5-(4-((methyl(4-(pyridin-2-yl)benzyl)amino)methyl)phenyl)-[1,2,4]triazolo[1,5-a]pyridin-2-yl)cyclopropanecarboxamide], the IC50 lay in the range of 101 to 500 nM.
As to `Cc1cc(CN(C)Cc2ccc(-c3cccc4nc(NC(=O)C5CC5)nn34)cc2)nn1C` [Compound 160, N-(5-(4-((((1,5-dimethyl-1H-pyrazol-3-yl)methyl)(methyl)amino)methyl)phenyl)-[1,2,4]triazolo[1,5-a]pyridin-2-yl)cyclopropanecarboxamide], the IC50 fell in the range of 101 to 500 nM.
With `CN(Cc1ccc(-c2cncnc2)cc1)Cc1ccc(-c2cccc3nc(NC(=O)C4CC4)nn23)cc1` [Compound 161, N-(5-(4-((methyl(4-(pyrimidin-5-yl)benzyl)amino)methyl)phenyl)-[1,2,4]triazolo[1,5-a]pyridin-2-yl)cyclopropanecarboxamide] the figure was 501 to 1000 nM; with `CN(Cc1cccnc1)c1ccc(-c2cccc3nc(NC(=O)C4CC4)nn23)cc1` [Compound 162, N-(5-(4-(methyl(pyridin-3-ylmethyl)amino)phenyl)-[1,2,4]triazolo[1,5-a]pyridin-2-yl)cyclopropanecarboxamide], greater than 1000 nM.
With `O=C(Nc1nc2cccc(-c3ccc(OCc4ccc(N5CCOCC5)nc4)cc3)n2n1)C1CC1` [Compound 165] the figure was 101 to 500 nM; with `CN1CCN(c2ccc(COc3ccc(-c4cccc5nc(NC(=O)C6CC6)nn45)cc3)cn2)CC1` [Compound 167, N-(5-(4-((6-(4-methylpiperazin-1-yl)pyridin-3-yl)methoxy)phenyl)-[1,2,4]triazolo[1,5-a]pyridin-2-yl)cyclopropanecarboxamide], 101 to 500 nM.
For `O=C(Nc1nc2cccc(-c3ccc(NCc4cccnc4)nc3)n2n1)C1CC1` [Compound 170, N-(5-(6-(pyridin-3-ylmethylamino)pyridin-3-yl)-[1,2,4]triazolo[1,5-a]pyridin-2-yl)cyclopropanecarboxamide], the IC50 was in the range of 501 to 1000 nM.
Regarding `O=C(Nc1nc2cccc(-c3ccc(NCc4ccccn4)nc3)n2n1)C1CC1` [Compound 171, N-(5-(6-(pyridin-2-ylmethylamino)pyridin-3-yl)-[1,2,4]triazolo[1,5-a]pyridin-2-yl)cyclopropanecarboxamide], the IC50 is 101 to 500 nM.
On to `O=C(Nc1nc2cccc(-c3ccc(NCCc4cccnc4)nc3)n2n1)C1CC1` [Compound 172, N-(5-(6-(2-(pyridin-3-yl)ethylamino)pyridin-3-yl)-[1,2,4]triazolo[1,5-a]pyridin-2-yl)cyclopropanecarboxamide], for which the IC50 was 501 to 1000 nM.
The result for `Cc1cc(CNc2ccc(-c3cccc4nc(NC(=O)C5CC5)nn34)cn2)nn1C` [Compound 173, N-(5-(6-((1,5-dimethyl-1H-pyrazol-3-yl)methylamino)pyridin-3-yl)-[1,2,4]triazolo[1,5-a]pyridin-2-yl)cyclopropanecarboxamide] reads greater than 1000 nM.
Turning to `O=C(Nc1nc2cccc(-c3ccc(NS(=O)(=O)c4ccccc4)nc3)n2n1)C1CC1` [Compound 180, N-(5-(6-(phenylsulfonamido)pyridin-3-yl)-[1,2,4]triazolo[1,5-a]pyridin-2-yl)cyclopropanecarboxamide], the IC50 lay in the range of 101 to 500 nM.
With `N#CCN(CCc1ccccc1)C(=O)c1ccc(-c2cccc3nc(NC(=O)C4CC4)nn23)cc1` [Compound 181, N-(cyanomethyl)-4-(2-(cyclopropanecarboxamido)-[1,2,4]triazolo[1,5-a]pyridin-5-yl)-N-phenethylbenzamide] the figure was 101 to 500 nM.
For the compound `O=C(Nc1nc2cccc(-c3ccc(NS(=O)(=O)Cc4ccccc4)nc3)n2n1)C1CC1` [Compound 184, N-(5-(6-(phenylmethylsulfonamido)pyridin-3-yl)-[1,2,4]triazolo[1,5-a]pyridin-2-yl)cyclopropanecarboxamide], the IC50 is greater than 1000 nM.
Consider `O=C(Nc1nc2cccc(-c3cnn(Cc4cccnc4)c3)n2n1)C1CC1` [Compound 185, Cyclopropanecarboxylic Acid [5-(1-pyridin-3-ylmethyl-1H-pyrazol-4-yl)-[1,2,4]triazolo[1,5-a]pyridin-2-yl]-amide], for which the IC50 was less than 100 nM.
